Assays:
Trypanosoma cruzi [1] = assay: microbe, parasite or virus in culture; format: functional, organism-based, Tulahuen LacZ, Clone C4; conditions: Trypanosoma cruzi, Tulahuen LacZ, Clone C4
[2] = DNDI: Cytotoxicity against L-6 rat myoblasts from skeletal muscle cells; conditions: L6 rat skeletal muscle myoblast cells
Trypanosoma cruzi [3] = assay: microbe, parasite or virus in culture; format: functional, Tulahuen LacZ, Clone C4; conditions: Trypanosoma cruzi, Tulahuen LacZ, Clone C4

With CC(C)(C)NC(=O)N1CCN(C(c2ccc(Cl)cc2)c2cncnc2)CC1 (centres undefined) as the molecule, how does the IC50 (Trypanosoma cruzi [1]) read?
Its IC50 is 230 nM.

What about the IC50 ([2]; IC50) of the same molecule?
Its IC50 is greater than 100000 nM.

What about the IC90 (Trypanosoma cruzi [3]) of the same molecule?
The IC90 was 600 nM.

Which results are given for O=S(=O)(c1ccc(Cl)cc1)N1CCN(C(c2cncnc2)c2ccc(Cl)cc2F)CC1 (centres undefined)?
IC50 (Trypanosoma cruzi [1]): 60 nM; IC50 ([2]; IC50): > 100000 nM; IC90 (Trypanosoma cruzi [3]): 110 nM

Which results are given for O=S(=O)(C1CCCCC1)N1CCC(NC(c2cnccn2)c2ccc(F)cc2F)CC1 (centres undefined)?
IC50 (Trypanosoma cruzi [1]): 420 nM; IC50 ([2]; IC50): > 100000 nM; IC90 (Trypanosoma cruzi [3]): 920 nM

With O=C(c1ccc(C(F)(F)F)cc1)N1CCC(NC(c2cnccn2)c2ccc(F)cc2F)CC1 (centres undefined) as the molecule, how does the IC50 (Trypanosoma cruzi [1]) read?
Its IC50 is 290 nM.

And the IC50 ([2]; IC50)?
Its IC50 is greater than 100000 nM.

And the IC90 (Trypanosoma cruzi [3])?
The IC90 was 830 nM.

With O=C(NC1CCN(C(c2ccc(C(F)(F)F)cc2)c2cnccn2)CC1)c1ccc(C(F)(F)F)cc1 (centres undefined) as the molecule, how does the IC50 (Trypanosoma cruzi [1]) read?
Its IC50 is 100 nM.

And the IC50 ([2]; IC50)?
Its IC50 is 57400 nM.

What about the IC90 (Trypanosoma cruzi [3]) of the same molecule?
The IC90 was 300 nM.

What does the source list for CCNC(=O)N1CCN(C(c2ccc(Cl)cc2)c2cncnc2)CC1 (centres undefined)?
IC50 (Trypanosoma cruzi [1]): 830 nM; IC50 ([2]; IC50): > 100000 nM; IC90 (Trypanosoma cruzi [3]): 2720 nM

With O=C(c1ccc(C(F)(F)F)cc1)N1CCC(NC(c2ccc(C(F)(F)F)cc2)c2cnccn2)CC1 (centres undefined) as the molecule, how does the IC50 (Trypanosoma cruzi [1]) read?
The IC50 was 82 nM.

And the IC50 ([2]; IC50)?
Its IC50 is 39900 nM.

What about the IC90 (Trypanosoma cruzi [3]) of the same molecule?
Its IC90 is 270 nM.

Which results are given for O=S(=O)(c1ccc(C(F)(F)F)cc1)N1CCN(C(c2ccc(Cl)cc2)c2cccnc2)CC1 (centres undefined)?
IC50 (Trypanosoma cruzi [1]): 55 nM; IC50 ([2]; IC50): 51400 nM; IC90 (Trypanosoma cruzi [3]): 180 nM

With O=S(=O)(C1CCCCC1)N1CCN(C(c2cncnc2)c2ccc(Cl)cc2F)CC1 (centres undefined) as the molecule, how does the IC50 (Trypanosoma cruzi [1]) read?
Its IC50 is 18 nM.

And the IC50 ([2]; IC50)?
Its IC50 is 61300 nM.

And the IC90 (Trypanosoma cruzi [3])?
The IC90 was 38 nM.

Which results are given for CS(=O)(=O)N1CCC(NC(c2cnccn2)c2ccc(F)cc2F)CC1 (centres undefined)?
IC50 (Trypanosoma cruzi [1]): 680 nM; IC50 ([2]; IC50): > 100000 nM; IC90 (Trypanosoma cruzi [3]): > 1000 nM

Which results are given for O=S(=O)(c1ccc(C(F)(F)F)cc1)N1CCC(NC(c2cnccn2)c2ccc(F)cc2F)CC1 (centres undefined)?
IC50 (Trypanosoma cruzi [1]): 360 nM; IC50 ([2]; IC50): 62700 nM; IC90 (Trypanosoma cruzi [3]): 820 nM

Which IC50 (Trypanosoma cruzi [1]) does the source give for CCOC(=O)N1CCN(C(c2ccc(Cl)cc2)c2cncnc2)CC1 (centres undefined) here?
The IC50 was 190 nM.

What about the IC50 ([2]; IC50) of the same molecule?
Its IC50 is greater than 100000 nM.

And the IC90 (Trypanosoma cruzi [3])?
Its IC90 is 360 nM.

For O=S(=O)(Cc1ccccc1)N1CCN(C(c2cncnc2)c2ccc(Cl)cc2F)CC1 (centres undefined), which IC50 (Trypanosoma cruzi [1]) is on record?
The IC50 was 72 nM.

And the IC50 ([2]; IC50)?
The IC50 was 62400 nM.

And the IC90 (Trypanosoma cruzi [3])?
The IC90 was 180 nM.

With CC(C)c1ccc(S(=O)(=O)N2CCN(C(c3cncnc3)c3ccc(Cl)cc3F)CC2)cc1 (centres undefined) as the molecule, how does the IC50 (Trypanosoma cruzi [1]) read?
Its IC50 is 18 nM.

And the IC50 ([2]; IC50)?
The IC50 was greater than 100000 nM.

And the IC90 (Trypanosoma cruzi [3])?
The IC90 was 36 nM.

For O=S(=O)(c1ccc(C(F)(F)F)cc1)N1CCC(NC(c2ccc(C(F)(F)F)cc2)c2cnccn2)CC1 (centres undefined), which IC50 (Trypanosoma cruzi [1]) is on record?
Its IC50 is 130 nM.

What about the IC50 ([2]; IC50) of the same molecule?
Its IC50 is 40900 nM.

What about the IC90 (Trypanosoma cruzi [3]) of the same molecule?
The IC90 was 290 nM.

For CC(C)CS(=O)(=O)N1CCC(NC(c2cnccn2)c2ccc(F)cc2F)CC1 (centres undefined), which IC50 (Trypanosoma cruzi [1]) is on record?
The IC50 was 560 nM.

And the IC50 ([2]; IC50)?
Its IC50 is greater than 100000 nM.

What about the IC90 (Trypanosoma cruzi [3]) of the same molecule?
Its IC90 is 960 nM.

For O=C(Nc1ccccc1)N1CCC(NC(c2ccc(Cl)cc2)c2cccnc2)CC1 (centres undefined), which IC50 (Trypanosoma cruzi [1]) is on record?
The IC50 was 78 nM.

What about the IC50 ([2]; IC50) of the same molecule?
The IC50 was 63700 nM.

What about the IC90 (Trypanosoma cruzi [3]) of the same molecule?
The IC90 was 250 nM.

With CC(C)c1ccc(S(=O)(=O)N2CCC(NC(c3cnccn3)c3ccc(F)cc3F)CC2)cc1 (centres undefined) as the molecule, how does the IC50 (Trypanosoma cruzi [1]) read?
The IC50 was 210 nM.

And the IC50 ([2]; IC50)?
Its IC50 is 21800 nM.

And the IC90 (Trypanosoma cruzi [3])?
The IC90 was 550 nM.

Which IC50 (Trypanosoma cruzi [1]) does the source give for O=C(NC1CCCCC1)c1cccc(C(O)(c2ccc(Cl)cc2)c2cccnc2)c1 (centres undefined) here?
The IC50 was 60 nM.

And the IC50 ([2]; IC50)?
The IC50 was 52300 nM.

And the IC90 (Trypanosoma cruzi [3])?
The IC90 was 210 nM.

What does the source list for CCS(=O)(=O)N1CCC(NC(c2cnccn2)c2ccc(F)cc2F)CC1 (centres undefined)?
IC50 (Trypanosoma cruzi [1]): 620 nM; IC50 ([2]; IC50): > 100000 nM; IC90 (Trypanosoma cruzi [3]): > 1000 nM

With CC(C)C(=O)N1CCC(NC(c2cnccn2)c2ccc(F)cc2F)CC1 (centres undefined) as the molecule, how does the IC50 (Trypanosoma cruzi [1]) read?
The IC50 was 850 nM.

What about the IC50 ([2]; IC50) of the same molecule?
The IC50 was greater than 100000 nM.

What about the IC90 (Trypanosoma cruzi [3]) of the same molecule?
The IC90 was greater than 1000 nM.

Which IC50 (Trypanosoma cruzi [1]) does the source give for CON(C)C(=O)c1cccc(C(O)(c2ccc(Cl)cc2)c2cccnc2)c1 (centres undefined) here?
Its IC50 is 38 nM.

What about the IC50 ([2]; IC50) of the same molecule?
Its IC50 is greater than 100000 nM.

What about the IC90 (Trypanosoma cruzi [3]) of the same molecule?
Its IC90 is 130 nM.

What does the source list for O=S(=O)(c1ccc(Cl)cc1)N1CCC(NC(c2cnccn2)c2ccc(F)cc2F)CC1 (centres undefined)?
IC50 (Trypanosoma cruzi [1]): 530 nM; IC50 ([2]; IC50): 77900 nM; IC90 (Trypanosoma cruzi [3]): 900 nM

Which results are given for O=C(c1ccccc1)N1CCN(C(c2cncnc2)c2ccc(Cl)cc2F)CC1 (centres undefined)?
IC50 (Trypanosoma cruzi [1]): 220 nM; IC50 ([2]; IC50): > 100000 nM; IC90 (Trypanosoma cruzi [3]): 580 nM

With O=C(Cc1ccccc1)N1CCN(C(c2ccc(Cl)cc2)c2cncnc2)CC1 (centres undefined) as the molecule, how does the IC50 (Trypanosoma cruzi [1]) read?
Its IC50 is 500 nM.

And the IC50 [2]?
The IC50 was 69500 nM.

What about the IC90 (Trypanosoma cruzi [3]) of the same molecule?
The IC90 was 850 nM.

For CNC(=O)c1cccc(C(O)(c2ccc(Cl)cc2)c2cccnc2)c1 (centres undefined), which IC50 (Trypanosoma cruzi [1]) is on record?
The IC50 was 590 nM.

What about the IC50 ([2]; IC50) of the same molecule?
Its IC50 is greater than 100000 nM.

What about the IC90 (Trypanosoma cruzi [3]) of the same molecule?
The IC90 was 995 nM.

What does the source list for O=C(NCC1CCCCC1)c1cccc(C(O)(c2ccc(Cl)cc2)c2cccnc2)c1 (centres undefined)?
IC50 (Trypanosoma cruzi [1]): 100 nM; IC50 ([2]; IC50): > 100000 nM; IC90 (Trypanosoma cruzi [3]): 280 nM

For CN(C)C(=O)N1CCN(C(c2cncnc2)c2ccc(Cl)cc2F)CC1 (centres undefined), which IC50 (Trypanosoma cruzi [1]) is on record?
Its IC50 is 480 nM.

What about the IC50 ([2]; IC50) of the same molecule?
The IC50 was greater than 100000 nM.

And the IC90 (Trypanosoma cruzi [3])?
The IC90 was 940 nM.

For CC(C)S(=O)(=O)N1CCN(C(c2ccc(Cl)cc2)c2cccnc2)CC1 (centres undefined), which IC50 (Trypanosoma cruzi [1]) is on record?
The IC50 was 28 nM.

What about the IC50 ([2]; IC50) of the same molecule?
Its IC50 is greater than 100000 nM.

What about the IC90 (Trypanosoma cruzi [3]) of the same molecule?
The IC90 was 88 nM.

Which IC50 (Trypanosoma cruzi [1]) does the source give for CC(C)S(=O)(=O)N1CCC(NC(c2cnccn2)c2ccc(F)cc2F)CC1 (centres undefined) here?
The IC50 was 340 nM.

What about the IC50 ([2]; IC50) of the same molecule?
Its IC50 is greater than 100000 nM.

What about the IC90 (Trypanosoma cruzi [3]) of the same molecule?
The IC90 was 790 nM.

Which results are given for O=C(C1CC1)N1CCC(NC(c2cnccn2)c2ccc(F)cc2F)CC1 (centres undefined)?
IC50 (Trypanosoma cruzi [1]): 1380 nM; IC50 ([2]; IC50): > 100000 nM; IC90 (Trypanosoma cruzi [3]): 3860 nM

With CN(C)C(=O)N1CCN(C(c2ccc(Cl)cc2)c2cncnc2)CC1 (centres undefined) as the molecule, how does the IC50 (Trypanosoma cruzi [1]) read?
Its IC50 is 620 nM.

And the IC50 ([2]; IC50)?
Its IC50 is greater than 100000 nM.

What about the IC90 (Trypanosoma cruzi [3]) of the same molecule?
The IC90 was greater than 1000 nM.

Which results are given for CCS(=O)(=O)N1CCC(NC(c2ccc(C(F)(F)F)cc2)c2cnccn2)CC1 (centres undefined)?
IC50 (Trypanosoma cruzi [1]): 490 nM; IC50 ([2]; IC50): > 100000 nM; IC90 (Trypanosoma cruzi [3]): 880 nM

From ChEMBL document CHEMBL1862790, “Optimisation of fenarimol series for the treatment of Chagas disease”
